Data: patent US9012460B2, “1-(2-phenoxymethylphenyl)piperazine compounds” (Theravance Biopharma R&D IP, LLC, priority 2010, dated 2015)

Columns and labels:
hNET [1] = target: T1, hNET (Homo sapiens, UniProt P23975); assay: hNET membrane radioligand binding assay (Assay 1); conditions: 3H-nisoxetine, membranes from HEK-293 cells expressing hNET; read-out: NET pKi (converted)
T1 construct: expressed in transfected cells; host or cells: HEK-293
Method: (§1) Membrane radioligand binding assays were used to measure inhibition of labeled ligand (^3H-citalopram or ^3H-nisoxetine or ^3H-WIN35428) binding to membranes prepared from cells expressing the respective human recombinant transporter (hSERT or hNET or hDAT) in order to determine the pKi values of test compounds at the transporters.
(§2) Recombinant human embryonic kidney (HEK-293) derived cell lines stably transfected with hSERT or hNET, respectively, were grown in DMEM medium supplemented with 10% dialyzed FBS (for hSERT) or FBS (for hNET), 100 μg/ml penicillin, 100 μg/ml streptomycin, 2 mM L-glutamine and 250 μg/ml of the aminoglycoside antibiotic G418, in a 5% CO2 humidified incubator at 37° C. When cultures reached 80% confluence, the cells were washed thoroughly in PBS (without Ca^2+ and Mg^2+) and lifted with 5 mM EDTA in PBS. Cells were pelleted by centrifugation, resuspended in lysis buffer (10 mM Tris-HCl, pH7.5 containing 1 mM EDTA), homogenized, pelleted by centrifugation, then resuspended in 50 mM Tris-HCl, pH 7.5 and 10% sucrose at 4° C. Protein concentration of the membrane suspension was determined using a Bio-Rad Bradford Protein Assay kit. Membranes were snap frozen and stored at −80° C. Chinese hamster ovary membranes expressing hDAT (CHO-DAT) were purchased from PerkinElmer and stored at −80° C.
(§3) Binding assays were performed in a 96-well assay plate in a total volume of 200 μL assay buffer (50 mM Tris-HCl, 120 mM NaCl, 5 mM KCl, pH 7.4) with 0.5, 1, and 3 μg membrane protein, for SERT, NET and DAT, respectively.
(§4) Stock solutions (10 mM in DMSO) of test compound were prepared and serial dilutions made using Dilution Buffer (50 mM Tris-HCl, 120 mM NaCl, 5 mM KCl, pH 7.4, 0.1% BSA, 400 μM ascorbic acid).
(§5) Following a 60 minute incubation at 22° C. (or a period sufficient to reach equilibrium), the membranes were harvested by rapid filtration over a 96-well UniFilter GF/B plate, pretreated with 0.3% polyethyleneimine, and washed 6 times with 300 μl wash buffer (50 mM Tris-HCl, 0.9% NaCl, pH 7.5 at 4° C.). Plates were dried overnight at room temperature, ˜45 μl of MicroScint™-20 (Perkin Elmer) added and bound radioactivity quantitated via liquid scintillation spectroscopy. Inhibition curves and saturation isotherms were analyzed using GraphPad Prism Software package (GraphPad Software, Inc., San Diego, Calif.). IC50 values were generated from concentration response curves using the Sigmoidal Dose Response (variable slope) algorithm in Prism GraphPad. Kd and Bmax values for the radioligand were generated from saturation isotherms using the Saturation Binding Global Fit algorithm in Prism GraphPad. pKi (negative decadic logarithm of Ki) values for test compounds were calculated from the best-fit IC50 values, and the Kd value of the radioligand, using the Cheng-Prusoff equation (Cheng & Prusoff (1973) Biochem. Pharmacol. 22(23):3099-3108): Ki=IC50/(1+[L]/Kd), where [L]=concentration radioligand.

hSERT [2] = target: T2, hSERT (Homo sapiens, UniProt P31645); assay: hSERT membrane radioligand binding assay (Assay 1); conditions: 3H-citalopram, membranes from HEK-293 cells expressing hSERT; read-out: SERT pKi (converted)
T2 construct: expressed in transfected cells; host or cells: HEK-293
Method: as §1, §2, §3, §4, §5

hNET [3] = target: T1, hNET; assay: hNET neurotransmitter uptake assay (Assay 2) or fluorescence-based assay of Tsuruda et al.; type: cell-based; conditions: norepinephrine reuptake inhibition; asterisk = fluorescence-based assay (Tsuruda et al. 2010); read-out: NET pIC50 (converted)
Method: (§6) Neurotransmitter uptake assays were used to measure inhibition of ^3H-serotonin (^3H-5-HT), ^3H-norepinephrine (^3H-NE), and ^3H-dopamine (^3H-DA) uptake into cells expressing the respective transporter (hSERT, hNET or hDAT) in order to determine the pIC50 values of test compounds at the transporters.
(§7) HEK-293 derived cell lines stably-transfected with hSERT, hNET, or hDAT, respectively, were grown in DMEM medium supplemented with 10% dialyzed FBS (for hSERT) or FBS (for hNET and hDAT), 100 μg/ml penicillin, 100 μg/ml streptomycin, 2 mM L-glutamine and 250 μg/ml of the aminoglycoside antibiotic G418 (for hSERT and hNET) or 800 ug/ml (for hDAT), in a 5% CO2 humidified incubator at 37° C. When cultures reached 80% confluence, the cells were washed thoroughly in PBS (without Ca^2+and Mg^2+) and lifted with 5 mM EDTA in PBS. […]
(§8) Following a 10 minute incubation, at 37° C., with radioligand, the cells were harvested by rapid filtration over a 96-well UniFilter GF/B plate, pretreated with 1% BSA, and washed 6 times with 650 μl wash buffer (ice cold PBS). Plates were dried overnight at 37° C., ˜45 μl of MicroScint™-20 (Perkin Elmer) added and incorporated radioactivity quantitated via liquid scintillation spectroscopy. Inhibition curves were analyzed using GraphPad Prism Software package (GraphPad Software, Inc., San Diego, Calif.). […]

hSERT [4] = target: T2, hSERT; assay: hSERT neurotransmitter uptake assay (Assay 2) or fluorescence-based assay of Tsuruda et al.; type: cell-based; conditions: serotonin reuptake inhibition; asterisk = fluorescence-based assay (Tsuruda et al. 2010); read-out: SERT pIC50 (converted)
Method: as §6, §7, §8

T2 sequence (P31645 whole entry): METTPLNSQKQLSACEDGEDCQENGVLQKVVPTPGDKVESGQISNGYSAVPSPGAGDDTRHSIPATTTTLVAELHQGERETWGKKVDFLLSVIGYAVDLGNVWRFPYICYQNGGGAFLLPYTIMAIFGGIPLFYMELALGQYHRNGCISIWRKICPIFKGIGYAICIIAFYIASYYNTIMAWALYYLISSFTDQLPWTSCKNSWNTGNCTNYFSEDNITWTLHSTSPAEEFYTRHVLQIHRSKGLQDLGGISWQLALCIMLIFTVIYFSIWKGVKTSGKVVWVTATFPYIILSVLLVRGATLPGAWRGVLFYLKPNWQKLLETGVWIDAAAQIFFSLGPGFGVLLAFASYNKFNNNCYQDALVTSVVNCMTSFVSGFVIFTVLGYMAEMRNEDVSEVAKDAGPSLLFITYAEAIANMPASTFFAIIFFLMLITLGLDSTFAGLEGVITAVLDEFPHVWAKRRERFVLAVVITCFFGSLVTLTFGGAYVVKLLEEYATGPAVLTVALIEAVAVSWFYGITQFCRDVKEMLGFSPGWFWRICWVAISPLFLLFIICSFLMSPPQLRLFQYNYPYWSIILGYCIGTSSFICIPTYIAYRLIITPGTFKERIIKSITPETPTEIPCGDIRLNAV
T1 sequence (P23975 whole entry): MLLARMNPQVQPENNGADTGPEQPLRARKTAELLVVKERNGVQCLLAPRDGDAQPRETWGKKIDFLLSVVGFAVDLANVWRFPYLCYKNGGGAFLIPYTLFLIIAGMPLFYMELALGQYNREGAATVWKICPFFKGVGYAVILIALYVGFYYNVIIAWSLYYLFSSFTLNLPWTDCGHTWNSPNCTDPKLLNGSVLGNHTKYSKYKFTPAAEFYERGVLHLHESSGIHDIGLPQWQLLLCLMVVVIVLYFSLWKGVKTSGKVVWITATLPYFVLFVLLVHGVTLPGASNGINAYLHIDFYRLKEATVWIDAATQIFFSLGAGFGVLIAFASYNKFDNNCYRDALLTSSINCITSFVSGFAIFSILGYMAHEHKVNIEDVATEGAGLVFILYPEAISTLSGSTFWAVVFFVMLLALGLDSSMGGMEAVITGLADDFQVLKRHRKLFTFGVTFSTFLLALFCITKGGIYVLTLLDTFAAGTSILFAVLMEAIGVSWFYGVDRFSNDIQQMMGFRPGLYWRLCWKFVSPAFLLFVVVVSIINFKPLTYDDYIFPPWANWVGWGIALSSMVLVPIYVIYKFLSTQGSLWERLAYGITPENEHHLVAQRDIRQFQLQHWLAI

Row | Structure (SMILES) | Ki (hNET [1]) | Ki (hSERT [2]) | IC50 (hNET [3]) | IC50 (hSERT [4])
1 | Fc1cc(F)cc(OCc2ccccc2N2CCNCC2)c1 [Example 2-36] | ≤ 10000 nM | ≤ 100 nM |  | 
2 | Cc1c(F)cccc1OCc1ccccc1N1CCNCC1 [Example 2-20] | ≤ 10000 nM | ≤ 100 nM |  | 
3 | Cc1c(Cl)cccc1OCc1ccccc1N1CCNCC1 [Example 2-21] | ≤ 100 nM | ≤ 100 nM |  | 
4 | c1ccc(COc2ccccc2OCc2ccccc2N2CCNCC2)cc1 [Example 2-11] | ≤ 10000 nM | ≤ 10000 nM |  | 
5 | CC(C)c1ccccc1OCc1ccccc1N1CCNCC1 [Example 2-5] | ≤ 10000 nM | ≤ 100 nM |  | 
6 | Brc1cccc(OCc2ccccc2N2CCNCC2)c1 [Example 2-13] | ≤ 100 nM | ≤ 100 nM |  | 
7 | c1ccc(Oc2ccccc2OCc2ccccc2N2CCNCC2)cc1 [Example 2-10] | ≤ 100 nM | ≤ 10000 nM |  | 
8 | CCc1ccccc1OCc1ccccc1N1CCNCC1 [Example 2-6] | ≤ 10000 nM | ≤ 100 nM |  | 
9 | Cc1ccc(Cl)cc1OCc1ccccc1N1CCNCC1 [Example 2-30] | ≤ 100 nM | ≤ 100 nM |  | 
10 | Fc1ccc(Cl)cc1OCc1ccccc1N1CCNCC1 [Example 2-24] | ≤ 10000 nM | ≤ 100 nM |  | 
11 | N#Cc1ccc(Cl)cc1OCc1ccccc1N1CCNCC1 [Example 2-32] | ≤ 10000 nM | ≤ 100 nM |  | 
12 | CC(C)(C)c1cccc(OCc2ccccc2N2CCNCC2)c1 [Example 2-15] | ≤ 10000 nM | ≤ 10000 nM |  | 
13 | CC(C)c1cccc(C(C)C)c1OCc1ccccc1N1CCNCC1 [Example 2-38] | ≤ 10000 nM | ≤ 10000 nM |  | 
14 | Fc1ccccc1OCc1ccccc1N1CCNCC1 [Example 2-1] | ≤ 100 nM | ≤ 10000 nM |  | 
15 | Ic1ccccc1OCc1ccccc1N1CCNCC1 [Example 2-3] | ≤ 100 nM | ≤ 100 nM |  | 
16 | Clc1ccc(Cl)c(OCc2ccccc2N2CCNCC2)c1 [Example 2-26] | ≤ 10000 nM | ≤ 100 nM |  | 
17 | Fc1cc(OCc2ccccc2N2CCNCC2)ccc1Cl [Example 2-34] | ≤ 100 nM | ≤ 100 nM |  | 
18 | c1ccc(-c2ccccc2OCc2ccccc2N2CCNCC2)cc1 [Example 2-8] | ≤ 10000 nM | ≤ 100 nM |  | 
19 | Cc1ccccc1OCc1ccccc1N1CCNCC1 [Example 2-4] | ≤ 10000 nM | ≤ 100 nM |  | 
20 | Fc1ccc(Br)c(OCc2ccccc2N2CCNCC2)c1 [Example 2-28] | ≤ 10000 nM | ≤ 100 nM |  | 
21 | COc1ccc(Cl)cc1OCc1ccccc1N1CCNCC1 [Example 2-31] | ≤ 10000 nM | ≤ 100 nM |  | 

Row | Structure (SMILES) | Ki (hNET [1]) | Ki (hSERT [2]) | IC50 (hNET [3]) | IC50 (hSERT [4])
22 | COc1ccccc1OCc1ccccc1N1CCNCC1 [Example 2-7] | ≤ 10000 nM | ≤ 100 nM |  | 
23 | Fc1ccc(F)c(OCc2ccccc2N2CCNCC2)c1 [Example 2-23] | ≤ 10000 nM | ≤ 100 nM |  | 
24 | Clc1cccc(OCc2ccccc2N2CCNCC2)c1Cl [Example 2-19] | ≤ 10000 nM | ≤ 100 nM |  | 
25 | Fc1ccc(OCc2ccccc2N2CCNCC2)cc1F [Example 2-33] | ≤ 100 nM | ≤ 100 nM |  | 
26 | Fc1c(Cl)cccc1OCc1ccccc1N1CCNCC1 [Example 2-18] | ≤ 10000 nM | ≤ 100 nM |  | 
27 | Clc1cc(Cl)cc(OCc2ccccc2N2CCNCC2)c1 [Example 2-37] | ≤ 10000 nM | ≤ 100 nM |  | 
28 | Clc1ccc(OCc2ccccc2N2CCNCC2)cc1Cl [Example 2-35] | ≤ 100 nM | ≤ 100 nM |  | 
29 | Ic1cccc(OCc2ccccc2N2CCNCC2)c1 [Example 1, 1-[2-(3-Iodophenoxymethyl)phenyl]piperazine] | ≤ 100 nM | ≤ 100 nM |  | 
30 | Clc1cc(Cl)c(Cl)c(OCc2ccccc2N2CCNCC2)c1Cl [Example 2-40] | ≤ 10000 nM | ≤ 100 nM |  | 
31 | Cc1ccc(OCc2ccccc2N2CCNCC2)cc1 [Example 2-17] | ≤ 10000 nM | ≤ 10000 nM |  | 
32 | Cc1cccc(OCc2ccccc2N2CCNCC2)c1 [Example 2-14] | ≤ 10000 nM | ≤ 100 nM |  | 
33 | Clc1cc(Cl)c(OCc2ccccc2N2CCNCC2)cc1Cl [Example 2-39] | ≤ 100 nM | ≤ 100 nM |  | 
34 | Fc1ccc(Cl)c(OCc2ccccc2N2CCNCC2)c1 [Example 2-27] | ≤ 10000 nM | ≤ 100 nM |  | 
35 | N#Cc1c(F)cccc1OCc1ccccc1N1CCNCC1 [Example 2-22] | ≤ 10000 nM | ≤ 100 nM |  | 
36 | c1ccc(Cc2ccccc2OCc2ccccc2N2CCNCC2)cc1 [Example 2-9] | ≤ 10000 nM | ≤ 100 nM |  | 
37 | Fc1ccc(Br)cc1OCc1ccccc1N1CCNCC1 [Example 2-25] | ≤ 100 nM | ≤ 100 nM |  | 
38 | Clc1ccccc1OCc1ccccc1N1CCNCC1 [Example 2-2] | ≤ 10000 nM | ≤ 100 nM |  | 
39 | Clc1cccc(OCc2ccccc2N2CCNCC2)c1 [Example 2-12] | ≤ 100 nM | ≤ 100 nM | ≤ 100 nM | ≤ 100 nM
40 | COc1cccc(OCc2ccccc2N2CCNCC2)c1 [Example 2-16] | ≤ 10000 nM | ≤ 100 nM |  | 
41 | Cc1ccc(F)cc1OCc1ccccc1N1CCNCC1 [Example 2-29] | ≤ 10000 nM | ≤ 100 nM |  | 
